≈ marks a conversion by molar mass, not a printed value.
What was measured:
Type in all cases: functional
Pseudomonas aeruginosa [1] = assay: Antimicrobial activity against Pseudomonas aeruginosa PA-4624
Pseudomonas aeruginosa [2] = assay: Antimicrobial activity against Pseudomonas aeruginosa PA-4991
Pseudomonas aeruginosa [3] = assay: Antimicrobial activity against Pseudomonas aeruginosa 1954-00
Pseudomonas aeruginosa [4] = assay: Antimicrobial activity against Pseudomonas aeruginosa 1619-08
Pseudomonas aeruginosa [5] = assay: Antimicrobial activity against Pseudomonas aeruginosa PA-4997
Pseudomonas aeruginosa [6] = assay: Antimicrobial activity against Pseudomonas aeruginosa 1527-08
Pseudomonas aeruginosa [7] = assay: Antimicrobial activity against Pseudomonas aeruginosa 1569-05
Pseudomonas aeruginosa [8] = assay: Antimicrobial activity against Pseudomonas aeruginosa PA-4990
Pseudomonas aeruginosa [9] = assay: Antimicrobial activity against Pseudomonas aeruginosa 1752-00
Pseudomonas aeruginosa [10] = assay: Antimicrobial activity against Pseudomonas aeruginosa 1515-08
Pseudomonas aeruginosa [11] = assay: Antimicrobial activity against Pseudomonas aeruginosa 1764-00
Pseudomonas aeruginosa [12] = assay: Antimicrobial activity against Pseudomonas aeruginosa 1955-00
Pseudomonas aeruginosa [13] = assay: Antimicrobial activity against Pseudomonas aeruginosa PA-75
Pseudomonas aeruginosa [14] = assay: Antimicrobial activity against Pseudomonas aeruginosa 1563-00
Pseudomonas aeruginosa [15] = assay: Antimicrobial activity against Pseudomonas aeruginosa 1951-00
Pseudomonas aeruginosa [16] = assay: Antimicrobial activity against Pseudomonas aeruginosa 1953-00
Pseudomonas aeruginosa [17] = assay: Antimicrobial activity against Pseudomonas aeruginosa 1509-08
Pseudomonas aeruginosa [18] = assay: Antimicrobial activity against Pseudomonas aeruginosa 1512-08
Pseudomonas aeruginosa [19] = assay: Antimicrobial activity against Pseudomonas aeruginosa 1568-05
Pseudomonas aeruginosa [20] = assay: Antimicrobial activity against Pseudomonas aeruginosa 1565-05
Pseudomonas aeruginosa [21] = assay: Antimicrobial activity against Pseudomonas aeruginosa 1510-08
Pseudomonas aeruginosa [22] = assay: Antimicrobial activity against Pseudomonas aeruginosa 1753-00
Pseudomonas aeruginosa [23] = assay: Antimicrobial activity against Pseudomonas aeruginosa PA-4995
Pseudomonas aeruginosa [24] = assay: Antimicrobial activity against Pseudomonas aeruginosa 1513-08
Pseudomonas aeruginosa [25] = assay: Antimicrobial activity against Pseudomonas aeruginosa 1613-09
Pseudomonas aeruginosa [26] = assay: Antimicrobial activity against Pseudomonas aeruginosa 1952-00
Pseudomonas aeruginosa [27] = assay: Antimicrobial activity against Pseudomonas aeruginosa 1612-09
Pseudomonas aeruginosa [28] = assay: Antimicrobial activity against Pseudomonas aeruginosa 1765-00
Pseudomonas aeruginosa [29] = assay: Antimicrobial activity against Pseudomonas aeruginosa 1760-00
Pseudomonas aeruginosa [30] = assay: Antimicrobial activity against Pseudomonas aeruginosa 1957-00
Pseudomonas aeruginosa [31] = assay: Antimicrobial activity against Pseudomonas aeruginosa 1567-05
Pseudomonas aeruginosa [32] = assay: Antimicrobial activity against Pseudomonas aeruginosa 1766-00
Pseudomonas aeruginosa [33] = assay: Antimicrobial activity against Pseudomonas aeruginosa 1514-08
Pseudomonas aeruginosa [34] = assay: Antimicrobial activity against Pseudomonas aeruginosa 1561-05
Pseudomonas aeruginosa [35] = assay: Antimicrobial activity against Pseudomonas aeruginosa 1564-05
Pseudomonas aeruginosa [36] = assay: Antimicrobial activity against Pseudomonas aeruginosa 1761-00
Pseudomonas aeruginosa [37] = assay: Antimicrobial activity against Pseudomonas aeruginosa PA-4999
Pseudomonas aeruginosa [38] = assay: Antimicrobial activity against Pseudomonas aeruginosa 1614-09
Pseudomonas aeruginosa [39] = assay: Antimicrobial activity against Pseudomonas aeruginosa 1956-00
Pseudomonas aeruginosa [40] = assay: Antimicrobial activity against Pseudomonas aeruginosa 1566-05
Pseudomonas aeruginosa [41] = assay: Antimicrobial activity against Pseudomonas aeruginosa 1521-08
Pseudomonas aeruginosa [42] = assay: Antimicrobial activity against Pseudomonas aeruginosa 1615-09
Pseudomonas aeruginosa [43] = assay: Antimicrobial activity against Pseudomonas aeruginosa 1767-00
Pseudomonas aeruginosa [44] = assay: Antimicrobial activity against Pseudomonas aeruginosa 1611-09
Pseudomonas aeruginosa [45] = assay: Antimicrobial activity against Pseudomonas aeruginosa 1570-05
Pseudomonas aeruginosa [46] = assay: Antimicrobial activity against Pseudomonas aeruginosa 1562-05
Pseudomonas aeruginosa [47] = assay: Antimicrobial activity against Pseudomonas aeruginosa 1523-08
Pseudomonas aeruginosa [48] = assay: Antimicrobial activity against Pseudomonas aeruginosa PA-4993
Pseudomonas aeruginosa [49] = assay: Antimicrobial activity against Pseudomonas aeruginosa 1768-00
Pseudomonas aeruginosa [50] = assay: Antimicrobial activity against Pseudomonas aeruginosa PA-1757
Pseudomonas aeruginosa [51] = assay: Antimicrobial activity against Pseudomonas aeruginosa 1526-08

MIC90 (Pseudomonas aeruginosa [1]): 0.5 µg/mL (≈ 0.702 µM)
MIC90 (Pseudomonas aeruginosa [2]): 0.25 µg/mL (≈ 0.351 µM)
MIC90 (Pseudomonas aeruginosa [3]): 0.03 µg/mL (≈ 0.0421 µM)
MIC90 (Pseudomonas aeruginosa [4]): 0.03 µg/mL (≈ 0.0421 µM)
MIC90 (Pseudomonas aeruginosa [5]): 0.25 µg/mL (≈ 0.351 µM)
MIC90 (Pseudomonas aeruginosa [6]): 0.25 µg/mL (≈ 0.351 µM)
MIC90 (Pseudomonas aeruginosa [7]): 0.25 µg/mL (≈ 0.351 µM)
MIC90 (Pseudomonas aeruginosa [8]): 0.125 µg/mL (≈ 0.175 µM)
MIC90 (Pseudomonas aeruginosa [9]): 0.25 µg/mL (≈ 0.351 µM)
MIC90 (Pseudomonas aeruginosa [10]): 0.5 µg/mL (≈ 0.702 µM)
MIC90 (Pseudomonas aeruginosa [11]): 0.06 µg/mL (≈ 0.0842 µM)
MIC90 (Pseudomonas aeruginosa [12]): 0.125 µg/mL (≈ 0.175 µM)
MIC90 (Pseudomonas aeruginosa [13]): 0.25 µg/mL (≈ 0.351 µM)
MIC90 (Pseudomonas aeruginosa [14]): 0.125 µg/mL (≈ 0.175 µM)
MIC90 (Pseudomonas aeruginosa [15]): 0.25 µg/mL (≈ 0.351 µM)
MIC90 (Pseudomonas aeruginosa [16]): 0.25 µg/mL (≈ 0.351 µM)
MIC90 (Pseudomonas aeruginosa [17]): 0.5 µg/mL (≈ 0.702 µM)
MIC90 (Pseudomonas aeruginosa [18]): 0.25 µg/mL (≈ 0.351 µM)
MIC90 (Pseudomonas aeruginosa [19]): 0.25 µg/mL (≈ 0.351 µM)
MIC90 (Pseudomonas aeruginosa [20]): 0.25 µg/mL (≈ 0.351 µM)
MIC90 (Pseudomonas aeruginosa [21]): 0.5 µg/mL (≈ 0.702 µM)
MIC90 (Pseudomonas aeruginosa [22]): 0.5 µg/mL (≈ 0.702 µM)
MIC90 (Pseudomonas aeruginosa [23]): 0.06 µg/mL (≈ 0.0842 µM)
MIC90 (Pseudomonas aeruginosa [24]): 0.5 µg/mL (≈ 0.702 µM)
MIC90 (Pseudomonas aeruginosa [25]): 0.25 µg/mL (≈ 0.351 µM)
MIC90 (Pseudomonas aeruginosa [26]): 0.25 µg/mL (≈ 0.351 µM)
MIC90 (Pseudomonas aeruginosa [27]): 0.5 µg/mL (≈ 0.702 µM)
MIC90 (Pseudomonas aeruginosa [28]): 0.5 µg/mL (≈ 0.702 µM)
MIC90 (Pseudomonas aeruginosa [29]): 0.5 µg/mL (≈ 0.702 µM)
MIC90 (Pseudomonas aeruginosa [30]): 0.06 µg/mL (≈ 0.0842 µM)
MIC90 (Pseudomonas aeruginosa [31]): 0.125 µg/mL (≈ 0.175 µM)
MIC90 (Pseudomonas aeruginosa [32]): 1 µg/mL (≈ 1.4 µM)
MIC90 (Pseudomonas aeruginosa [33]): 0.5 µg/mL (≈ 0.702 µM)
MIC90 (Pseudomonas aeruginosa [34]): 0.5 µg/mL (≈ 0.702 µM)
MIC90 (Pseudomonas aeruginosa [35]): 0.125 µg/mL (≈ 0.175 µM)
MIC90 (Pseudomonas aeruginosa [36]): 0.5 µg/mL (≈ 0.702 µM)
MIC90 (Pseudomonas aeruginosa [37]): 0.25 µg/mL (≈ 0.351 µM)
MIC90 (Pseudomonas aeruginosa [38]): 0.25 µg/mL (≈ 0.351 µM)
MIC90 (Pseudomonas aeruginosa [39]): 0.06 µg/mL (≈ 0.0842 µM)
MIC90 (Pseudomonas aeruginosa [40]): 0.125 µg/mL (≈ 0.175 µM)
MIC90 (Pseudomonas aeruginosa [41]): 0.5 µg/mL (≈ 0.702 µM)
MIC90 (Pseudomonas aeruginosa [42]): 0.25 µg/mL (≈ 0.351 µM)
MIC90 (Pseudomonas aeruginosa [43]): 0.125 µg/mL (≈ 0.175 µM)
MIC90 (Pseudomonas aeruginosa [44]): 0.06 µg/mL (≈ 0.0842 µM)
MIC90 (Pseudomonas aeruginosa [45]): 0.125 µg/mL (≈ 0.175 µM)
MIC90 (Pseudomonas aeruginosa [46]): 0.06 µg/mL (≈ 0.0842 µM)
MIC90 (Pseudomonas aeruginosa [47]): 0.25 µg/mL (≈ 0.351 µM)
MIC90 (Pseudomonas aeruginosa [48]): 0.25 µg/mL (≈ 0.351 µM)
MIC90 (Pseudomonas aeruginosa [49]): 0.06 µg/mL (≈ 0.0842 µM)
MIC90 (Pseudomonas aeruginosa [50]): 4 µg/mL (≈ 5.61 µM)
MIC90 (Pseudomonas aeruginosa [51]): 0.125 µg/mL (≈ 0.175 µM)
SMILES: C[C@H](O)Cn1c(-c2cc(=O)c(O)c[nH]2)nn(S(=O)(=O)NC(=O)N2C(=O)[C@@H](NC(=O)/C(=N\OC(C)(C)C(=O)O)c3csc(N)n3)[C@@H]2C)c1=O

— ChEMBL document CHEMBL3217532, “New analyses of MIC90 data to aid antibacterial drug discovery” (2011)
